Experimental data as given in patent US6737383B1, “Herbicidal oxadiazolidines” (priority 1999, dated 2004).

Experiments:
[1] = test system: corn; assay: Test B pre/postemergence corn; type: in vivo, Zea mays
How it was run: (§1)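 Response is a visual 0-to-10 score relative to untreated plants, where 0 means no effect and 10 means complete control, taken twelve to sixteen days after application. Treatments went onto soil at planting and onto foliage of 1- to 4-leaf plants, using a surfactant-containing non-phytotoxic solvent.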

[2] = test system: blackgrass; assay: Test B pre/postemergence blackgrass; type: in vivo, Alopecurus myosuroides
How it was run: as §1

[3] = test system: wild oat; assay: Test B pre/postemergence wild oat; type: in vivo, Avena fatua
How it was run: as §1

[4] = test system: bedstraw; assay: Test B pre/postemergence bedstraw; type: in vivo, Galium aparine; settings: Preemergence
How it was run: as §1

[5] = test system: purple nutsedge; assay: Test B pre/postemergence purple nutsedge; type: in vivo, Cyperus rotundus
How it was run: as §1

[6] = test system: velvetleaf; assay: Test B pre/postemergence velvetleaf; type: in vivo, Abutilon theophrasti
How it was run: as §1

[7] = test system: morningglory; assay: Test B pre/postemergence morningglory; type: in vivo, Ipomoea hederacea
How it was run: as §1

[8] = test system: cocklebur; assay: Test B pre/postemergence cocklebur; type: in vivo, Xanthium strumarium
How it was run: as §1

[9] = test system: wheat; assay: Test B pre/postemergence wheat; type: in vivo, Triticum aestivum
How it was run: as §1

[10] = test system: crabgrass; assay: Test B pre/postemergence crabgrass; type: in vivo, Digitaria sanguinalis
How it was run: as §1

[11] = test system: surinam grass; assay: Test B pre/postemergence surinam grass; type: in vivo, Brachiaria decumbens
How it was run: as §1

[12] = test system: pigweed; assay: Test B pre/postemergence pigweed; type: in vivo, Amaranthus retroflexus
How it was run: as §1

[13] = test system: giant foxtail; assay: Test B pre/postemergence giant foxtail; type: in vivo, Setaria faberii
How it was run: as §1

[14] = test system: sugar beet; assay: Test B pre/postemergence sugar beet; type: in vivo, Beta vulgaris
How it was run: as §1

[15] = test system: rape; assay: Test B pre/postemergence rape; type: in vivo, Brassica napus
How it was run: as §1

[16] = test system: soybean; assay: Test B pre/postemergence soybean; type: in vivo, Glycine max
How it was run: as §1

[17] = Postemergence, Rate 62 g/ha, scale of 0 to 10, 0 is no effect, 10 is complete control
[18] = Postemergence, Rate 125 g/ha, scale 0 to 10, 0 is no effect, 10 is complete control
[19] = Postemergence, Rate 500 g/ha, scale 0 to 10, 0 is no effect, 10 is complete control
[20] = Preemergence, Rate 62 g/ha, scale 0 to 10 (0 no effect, 10 complete control)
[21] = Preemergence, Rate 125 g/ha, scale 0 to 10, 0 is no effect, 10 is complete control
[22] = Preemergence, Rate 500 g/ha, scale of 0 to 10 where 0 is no effect and 10 is complete control
[23] = Rate 250 g/ha, Postemergence, scale of 0 to 10 where 0 is no effect and 10 is complete control

COCn1c(=O)on(C(=O)N(c2ccc(Cl)cc2)C(C)C)c1=O [Compound 533]
2: Blackgrass plant response rating [2, 18] | Cocklebur plant response rating [8, 17] | Cocklebur plant response rating [8, 18] | Plant response rating, Cocklebur [8, 23] | Plant response rating, Wheat [9, 19] | B. signalgrass plant response rating [11, 20]
0: Corn plant response rating [1, 17] | Corn plant response rating [1, 18] | Plant response rating, Corn [1, 19] | Corn plant response rating [1, 20] | Corn plant response rating [1, 21] | Corn plant response rating (0 to 10 scale) ([1]; Preemergence, Rate 250 g/ha) | Plant response rating, Corn [1, 23] | Wild oats plant response rating [3, 17] | Wild oats plant response rating [3, 18] | Plant response rating, Wild oats [3, 19] | Wild oats plant response rating [3, 20] | Wild oats plant response rating [3, 21] | Bedstraw plant response rating ([4]; Rate 62 g/ha, scale 0 to 10 (0 no effect, 10 complete control)) | Bedstraw plant response rating ([4]; Rate 125 g/ha, scale 0 to 10, 0 is no effect, 10 is complete control) | Bedstraw plant response rating (0 to 10 scale) ([4]; Rate 250 g/ha) | Bedstraw plant response rating ([4]; Rate 500 g/ha, scale of 0 to 10 where 0 is no effect and 10 is complete control) | Nutsedge plant response rating [5, 17] | Nutsedge plant response rating [5, 18] | Plant response rating, Nutsedge [5, 19] | Nutsedge plant response rating [5, 20] | Nutsedge plant response rating [5, 21] | Nutsedge plant response rating [5, 22] | Plant response rating, Nutsedge [5, 23] | Velvetleaf plant response rating [6, 17] | Velvetleaf plant response rating [6, 20] | Velvetleaf plant response rating [6, 21] | Morningglory plant response rating [7, 20] | Morningglory plant response rating [7, 21] | Morningglory plant response rating (0 to 10 scale) ([7]; Preemergence, Rate 250 g/ha) | Morningglory plant response rating [7, 22] | Cocklebur plant response rating [8, 20] | Cocklebur plant response rating [8, 21] | Cocklebur plant response rating (0 to 10 scale) ([8]; Preemergence, Rate 250 g/ha) | Cocklebur plant response rating [8, 22] | Wheat plant response rating [9, 17] | Wheat plant response rating [9, 18] | Wheat plant response rating [9, 20] | Wheat plant response rating [9, 21] | Wheat plant response rating (0 to 10 scale) ([9]; Preemergence, Rate 250 g/ha) | Wheat plant response rating [9, 22] | B. signalgrass plant response rating [11, 17] | B. signalgrass plant response rating [11, 18] | Sugarbeets plant response rating [14, 17] | Sugarbeets plant response rating [14, 18] | Rape plant response rating [15, 17] | Rape plant response rating [15, 18] | Rape plant response rating [15, 20] | Rape plant response rating [15, 21] | Soybean plant response rating [16, 20] | Soybean plant response rating [16, 21] | Soybean plant response rating (0 to 10 scale) ([16]; Preemergence, Rate 250 g/ha) | Soybean plant response rating [16, 22]
5: Velvetleaf plant response rating (0 to 10 scale) ([6]; Preemergence, Rate 250 g/ha) | Velvetleaf plant response rating [6, 22] | Sugarbeets plant response rating [14, 21]
7: Plant response rating, Blackgrass [2, 19] | Plant response rating, Morningglory [7, 19] | Plant response rating, Morningglory [7, 23] | Sugarbeets plant response rating (0 to 10 scale) ([14]; Preemergence, Rate 250 g/ha) | Sugarbeets plant response rating [14, 22] | Rape plant response rating (0 to 10 scale) ([15]; Preemergence, Rate 250 g/ha) | Rape plant response rating [15, 22]
6: Corn plant response rating [1, 22]
9: Blackgrass plant response rating (0 to 10 scale) ([2]; Preemergence, Rate 250 g/ha) | Blackgrass plant response rating [2, 22] | Wild oats plant response rating (0 to 10 scale) ([3]; Preemergence, Rate 250 g/ha) | Wild oats plant response rating [3, 22] | Plant response rating, Crabgrass [10, 19] | Crabgrass plant response rating [10, 20] | Plant response rating, Crabgrass [10, 23] | B. signalgrass plant response rating (0 to 10 scale, 0 is no effect, 10 is complete control) ([11]; Preemergence, Rate 250 g/ha) | B. signalgrass plant response rating [11, 22] | Redroot pigweed plant response rating [12, 17] | Redroot pigweed plant response rating [12, 18] | Plant response rating, Redroot pigweed [12, 19] | Plant response rating, Giant foxtail [13, 19] | Giant foxtail plant response rating [13, 20] | Plant response rating, Giant foxtail [13, 23]
8: Blackgrass plant response rating [2, 21] | Plant response rating, Velvetleaf [6, 19] | Crabgrass plant response rating [10, 18] | Redroot pigweed plant response rating [12, 20] | Redroot pigweed plant response rating [12, 21] | Redroot pigweed plant response rating (0 to 10 scale) ([12]; Preemergence, Rate 250 g/ha) | Redroot pigweed plant response rating [12, 22] | Giant foxtail plant response rating [13, 17] | Giant foxtail plant response rating [13, 18]
3: Crabgrass plant response rating [10, 17] | B. signalgrass plant response rating [11, 21] | Sugarbeets plant response rating [14, 20]
10: Crabgrass plant response rating [10, 21] | Crabgrass plant response rating (0 to 10 scale) ([10]; Preemergence, Rate 250 g/ha) | Crabgrass plant response rating [10, 22] | Giant foxtail plant response rating [13, 21] | Giant foxtail plant response rating (0 to 10 scale) ([13]; Preemergence, Rate 250 g/ha) | Giant foxtail plant response rating [13, 22]
4: Blackgrass plant response rating [2, 20] | Velvetleaf plant response rating [6, 18] | Plant response rating, Velvetleaf [6, 23] | Morningglory plant response rating [7, 17] | Morningglory plant response rating [7, 18] | Plant response rating, Cocklebur [8, 19] | Plant response rating, B. signalgrass [11, 19] | Plant response rating, Sugarbeets [14, 19] | Plant response rating, Rape [15, 19] | Soybean plant response rating [16, 17] | Soybean plant response rating [16, 18] | Plant response rating, Soybean [16, 19] | Plant response rating, Soybean [16, 23]
